# Results taken from patent publication US20110312984A1, “STAT3 INHIBITORS” (priority 2008, published 2011).
# Entries after “also recorded” stand apart in the source; their conditions may differ. Read-outs that look alike come from different tables or passages of the source.
# Experiments:
# [1] = target: T1, Stat1 (Homo sapiens, UniProt P42224); experiment: Immunoblot assay: IFN-γ-mediated phosphorylation of Stat1 in HepG2 cells; type: cell-based; conditions: 300 μM, 1 hour at 37° C. before IFN-γ stimulation
# T1 construct: endogenous in cells; host or cells: HepG2
# T1 sequence (P42224 1-750): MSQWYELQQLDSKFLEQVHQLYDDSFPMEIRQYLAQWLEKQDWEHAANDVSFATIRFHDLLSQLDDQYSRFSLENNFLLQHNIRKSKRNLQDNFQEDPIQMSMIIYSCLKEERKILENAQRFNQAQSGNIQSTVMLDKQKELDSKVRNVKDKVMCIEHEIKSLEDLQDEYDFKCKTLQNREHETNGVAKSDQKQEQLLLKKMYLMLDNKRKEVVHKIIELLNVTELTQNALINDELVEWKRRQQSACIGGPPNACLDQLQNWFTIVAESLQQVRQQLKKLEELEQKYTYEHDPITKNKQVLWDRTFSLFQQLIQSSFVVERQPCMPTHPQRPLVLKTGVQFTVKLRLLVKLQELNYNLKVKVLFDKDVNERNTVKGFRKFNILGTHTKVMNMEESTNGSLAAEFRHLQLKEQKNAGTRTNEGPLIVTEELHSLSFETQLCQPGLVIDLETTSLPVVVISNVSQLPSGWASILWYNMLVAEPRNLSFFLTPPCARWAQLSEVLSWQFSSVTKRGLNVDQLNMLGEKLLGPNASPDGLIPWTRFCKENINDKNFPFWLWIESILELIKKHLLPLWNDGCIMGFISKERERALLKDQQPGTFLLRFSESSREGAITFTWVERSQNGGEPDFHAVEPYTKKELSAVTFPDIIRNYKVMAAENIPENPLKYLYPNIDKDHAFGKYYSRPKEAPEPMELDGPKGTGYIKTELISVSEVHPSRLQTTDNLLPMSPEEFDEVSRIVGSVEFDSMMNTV
# Description: Immunoblot assay. The human hepatocellular carcinoma cell line (HepG2) was grown in 6-well plates under standard conditions. Cells were pretreated with compounds (0, 1, 3, 10, 30, 100 and 300 uM) for 1 hour then stimulated under optimal conditions with either interferon gamma (IFN-γ; 30 ng/ml for 30 min) to activate Stat1 or interleukin-6 (IL-6; 30 ng/ml for 30 min) to activate Stat3 (30-31). Cultures were then harvested and proteins extracted using high-salt buffer, as described (Shao et al., 2006). Briefly, extracts were mixed with 2× sodium dodecyl sulfate (SDS) sample buffer (125 mmol/L Tris-HCL pH 6.8; 4% SDS; 20% glycerol; 10% 2-mercaptoethanol) at a 1:1 ratio and heated for 5 minutes at 100° C. Proteins (20 μg) were separated by 7.5% SDS-PAGE and transferred to polyvinylidene fluoride (PVDF) membrane (Millipore, Waltham, Mass.) and immunoblotted. Prestained molecular weight markers (Biorad, Hercules, Calif.) were included in each gel. Membranes were probed serially with antibody against Stat1 pY^701 or Stat3 pY^705 followed by antibody against Stat1 or Stat3 (Transduction labs, Lexington, Ky.) then antibody against β-actin (Abcam, Cambridge, Mass.). Membranes were stripped between antibody probing using Restore™ Western Blot Stripping Buffer (Thermo Fisher Scientific Inc., Waltham, Mass.) per the manufacturer's instructions. Horseradish peroxidase-conjugated goat-anti-mouse IgG was used as the secondary antibody (Invitrogen Carlsbad, Calif.) and the membranes were developed with enhanced chemiluminescence (ECL) detection system (Amersham Life Sciences Inc.; Arlington Heights, Ill.).
# EXP IIC. Ligand-mediated pStat3 and pStat1 inhibition assays. […] Briefly, human hepatocellular carcinoma cells (HepG2) are grown in 6-well plates and pretreated with compounds (0, 0.1, 0.3, 1, 3, 10, 30, 100 μM) for 1 hour then stimulated under optimal conditions with either interleukin-6 (IL-6; 30 ng/ml for 30 min) to activate Stat3 or interferon gamma (IFN-γ; 30 ng/ml for 30 min) to activate Stat1. Cells are harvested and proteins extracted using high-salt buffer, mixed with 2× sodium dodecyl sulfate (SDS) sample buffer (125 mmol/L Tris-HCL pH 6.8; 4% SDS; 20% glycerol; 10% 2-mercaptoethanol) at a 1:1 ratio then heated for 5 minutes at 100° C. Proteins (20 μg) are separated by 7.5% SDS-PAGE and transferred to polyvinylidene fluoride (PVDF) membrane (Millipore, Waltham, Mass.) and immunoblotted. Membranes are probed serially with antibody against Stat1 pY701 or Stat3 pY705 followed by antibody against Stat 1 or Stat3 (Transduction labs, Lexington, Ky.) then antibody against β-actin (Abcam, Cambridge, Mass.). Membranes are stripped between antibody probings using Restore™ Western Blot Stripping Buffer (Thermo Fisher Scientific Inc., Waltham, Mass.) per the manufacturer's instructions. Horseradish peroxidase-conjugated goat-anti-mouse IgG is used as the secondary antibody (Invitrogen Carlsbad, Calif.) and the membranes are developed with enhanced chemiluminescence (ECL) detection system (Amersham Life Sciences Inc.; Arlington Heights, Ill.). Band intensities are quantified by densitometry. The value of each pStat3 band is divided by its corresponding total Stat3 band intensity; the results are normalized to the DMSO-treated control value. This value was plotted as a function of the log compound concentration. The best-fitting curve is determined using 4-Parameter Logistic Model/Dose Response/XLfit 4.2, IDBS software and was used to calculate the IC50 value.
# [2] = target: T2, GFP-Stat3α (Homo sapiens, UniProt P40763); experiment: High-throughput fluorescence microscopy (HTFM), cytoplasm-to-nucleus translocation inhibition in MEF/GFP-Stat3α cells; type: cell-based, murine
# T2 construct: expressed in transfected cells; host or cells: murine embryonic fibroblasts (MEF) deficient in endogenous Stat3
# Description: Confocal and highthroughput fluorescence microscopy (HTFM) of MEF/GFP-Stat3α cells were performed as described (Huang et al., 2007). […] For HTFM, cells were seeded into 96-well CC3 plates at a density of 5,000 cells/well using an automated plating system. Cells were cultured under standard conditions until 85-90% confluent. Cells were pretreated with compound for 1 hour at 37° C. then stimulated with IL-6 (200 ng/ml) and IL-6sR (250 ng/ml) for 30 minutes. Cells fixed with 4% formaldehyde in PEM Buffer (80 mM Potassium PIPES, pH 6.8, 5 mM EGTA pH 7.0, 2 mM MgCl2) for 30 minutes at 4° C., quenched in 1 mg/ml of NaBH4 (Sigma) in PEM buffer and counterstained for 1 min in 4,6-diamidino-2-phenylindole (DAPI; Sigma; 1 mg/ml) in PEM buffer. […] Plates were analyzed by automated HTFM using the Cell Lab IC Image Cytometer (IC100) platform and CytoshopVersion 2.1 analysis software (Beckman Coulter). Nuclear translocation is quantified by using the fraction localized in the nucleus (FLIN) measurement (Sharp et al., 2006).
# High throughput fluorescence microscopy (HTFM), cytoplasm-to-nucleus translocation inhibition assays. […] Briefly, cells are seeded into 96-well CC3 plates at a density of 5,000 cells/well and cultured under standard conditions until 85-90% confluent. Cells are pre-treated with compound for 1 hour at 37° C. then stimulated with IL-6 (100 ng/ml) and IL-6sR (150 ng/ml) for 30 minutes. Cells are fixed with 4% formaldehyde in PEM Buffer (80 mM Potassium PIPES, pH 6.8, 5 mM EGTA pH 7.0, 2 mM MgCl2) for 30 minutes at 4° C., quenched in 1 mg/ml of NaBH4 (Sigma) in PEM buffer and counterstained for 1 min in 4,6-diamidino-2-phenylindole (DAPI; Sigma; 1 mg/ml) in PEM buffer. Plates are analyzed by automated HTFM using the Cell Lab IC Image Cytometer (IC100) platform and CytoshopVersion 2.1 analysis software (Beckman Coulter).
# Nuclear translocation is quantified by using the fraction localized in the nucleus (FLIN) measurement. […] The best-fitting curve and IC50 value are determined using 4-Parameter LogisticModel/Dose Response/XLfit 4.2, IDBS software.
# [3] = target: T3, Stat3 (Homo sapiens, UniProt P40763); experiment: Immunoblot assay: IL-6-mediated phosphorylation of Stat3 in HepG2 cells; type: cell-based
# T3 construct: endogenous in cells; host or cells: HepG2
# Description: Immunoblot assay. The human hepatocellular carcinoma cell line (HepG2) was grown in 6-well plates under standard conditions. […] Prestained molecular weight markers (Biorad, Hercules, Calif.) were included in each gel. […] Membranes were stripped between antibody probing using Restore™ Western Blot Stripping Buffer (Thermo Fisher Scientific Inc., Waltham, Mass.) per the manufacturer's instructions. Horseradish peroxidase-conjugated goat-anti-mouse IgG was used as the secondary antibody (Invitrogen Carlsbad, Calif.) and the membranes were developed with enhanced chemiluminescence (ECL) detection system (Amersham Life Sciences Inc.; Arlington Heights, Ill.).
# Ligand-mediated pStat3 and pStat1 inhibition assays. […] Membranes are probed serially with antibody against Stat1 pY701 or Stat3 pY705 followed by antibody against Stat 1 or Stat3 (Transduction labs, Lexington, Ky.) then antibody against β-actin (Abcam, Cambridge, Mass.). Membranes are stripped between antibody probings using Restore™ Western Blot Stripping Buffer (Thermo Fisher Scientific Inc., Waltham, Mass.) per the manufacturer's instructions. Horseradish peroxidase-conjugated goat-anti-mouse IgG is used as the secondary antibody (Invitrogen Carlsbad, Calif.) and the membranes are developed with enhanced chemiluminescence (ECL) detection system (Amersham Life Sciences Inc.; Arlington Heights, Ill.). Band intensities are quantified by densitometry. The value of each pStat3 band is divided by its corresponding total Stat3 band intensity; the results are normalized to the DMSO-treated control value. This value was plotted as a function of the log compound concentration. The best-fitting curve is determined using 4-Parameter Logistic Model/Dose Response/XLfit 4.2, IDBS software and was used to calculate the IC50 value.
# [4] = target: T4, Stat3:hSIE complexes (Homo sapiens, UniProt P40763); experiment: Electrophoretic mobility shift assay (EMSA) with hSIE probe, extracts of IL-6-stimulated HepG2 cells; type: biochemical; conditions: 300 μM, 60 minutes at 37° C.
# T4 construct: endogenous in cells; host or cells: HepG2
# Description: Electrophoretic Mobility Shift Assay (EMSA): EMSA was performed using the hSIE radiolabeled duplex oligonucleotide as a probe as described (Tweardy et al., 1995). Briefly, high salt extracts were prepared from HepG2 cells incubated without or with IL-6 (30 ng/ml) for 30 minutes. Protein concentration was determined by Bradford Assay and 20 ug of extract was incubated with compound (300 uM) for 60 minutes at 37° C. […] Gels were dried and autoradiographed.
# [5] = test system: breast cancer cells with constitutively activated Stat3; conditions: cited from earlier work
# [6] = test system: human leukemic cell line; experiment: Leukemic cell line (AML) apoptosis assay; type: cell-based
# [7] = test system: MDA-MB-231; conditions: 5 mg/kg every 2-3 days; cited from earlier work
# [8] = MEF/GFP-Stat3α, IL-6 200 ng/ml and IL-6sR 250 ng/ml 30 min, read-out: HTM IC50 (ligand-mediated nuclear translocation of GFP-Stat3α)
# [9] = HepG2, compound 1 hour, IL-6 30 ng/ml 30 min, read-out: pStat3 IC50 (IL-6-mediated phosphorylation of Stat3)
# T2 sequence (P40763 whole entry): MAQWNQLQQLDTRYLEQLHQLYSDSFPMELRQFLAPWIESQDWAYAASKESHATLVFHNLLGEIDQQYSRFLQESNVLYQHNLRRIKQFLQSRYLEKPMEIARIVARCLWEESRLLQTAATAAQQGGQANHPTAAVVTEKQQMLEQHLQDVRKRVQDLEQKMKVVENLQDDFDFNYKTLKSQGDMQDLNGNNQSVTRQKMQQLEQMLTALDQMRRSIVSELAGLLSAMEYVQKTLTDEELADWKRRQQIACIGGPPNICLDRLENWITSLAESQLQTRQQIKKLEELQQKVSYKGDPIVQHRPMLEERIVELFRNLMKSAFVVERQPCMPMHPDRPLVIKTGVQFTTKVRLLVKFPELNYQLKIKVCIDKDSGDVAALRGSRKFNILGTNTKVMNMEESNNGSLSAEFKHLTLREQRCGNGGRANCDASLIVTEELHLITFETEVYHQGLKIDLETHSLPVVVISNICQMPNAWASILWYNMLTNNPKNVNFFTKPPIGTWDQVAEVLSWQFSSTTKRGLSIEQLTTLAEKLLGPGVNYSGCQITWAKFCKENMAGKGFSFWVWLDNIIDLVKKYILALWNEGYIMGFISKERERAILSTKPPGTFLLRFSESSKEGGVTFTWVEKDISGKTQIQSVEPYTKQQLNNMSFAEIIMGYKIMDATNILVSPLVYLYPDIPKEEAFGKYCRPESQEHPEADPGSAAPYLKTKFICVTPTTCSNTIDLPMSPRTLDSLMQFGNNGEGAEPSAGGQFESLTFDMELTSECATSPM
# T3 sequence (P40763 2-770 limits assumed): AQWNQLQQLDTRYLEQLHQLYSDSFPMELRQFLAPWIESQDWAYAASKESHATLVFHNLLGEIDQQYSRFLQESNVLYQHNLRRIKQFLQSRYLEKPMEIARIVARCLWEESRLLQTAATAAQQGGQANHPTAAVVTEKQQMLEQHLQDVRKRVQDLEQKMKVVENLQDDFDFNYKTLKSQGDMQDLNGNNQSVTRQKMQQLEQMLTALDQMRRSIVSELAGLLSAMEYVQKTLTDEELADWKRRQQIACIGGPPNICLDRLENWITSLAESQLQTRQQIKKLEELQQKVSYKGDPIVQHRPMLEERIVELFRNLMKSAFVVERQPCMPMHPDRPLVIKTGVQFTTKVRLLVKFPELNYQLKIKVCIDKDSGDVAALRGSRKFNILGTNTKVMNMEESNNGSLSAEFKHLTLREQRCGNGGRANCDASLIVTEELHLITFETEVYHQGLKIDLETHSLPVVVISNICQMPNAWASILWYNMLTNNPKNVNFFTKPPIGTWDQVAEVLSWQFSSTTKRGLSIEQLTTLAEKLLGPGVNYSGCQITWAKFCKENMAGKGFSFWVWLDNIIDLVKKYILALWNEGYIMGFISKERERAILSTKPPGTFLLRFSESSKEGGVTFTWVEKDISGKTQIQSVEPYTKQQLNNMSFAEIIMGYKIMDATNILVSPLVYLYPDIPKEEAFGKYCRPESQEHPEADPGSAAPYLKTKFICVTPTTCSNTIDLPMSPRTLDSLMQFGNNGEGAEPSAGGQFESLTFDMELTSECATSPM
# T4 sequence (P40763 2-770 limits assumed, one chain of several): as the sequence (P40763 2-770 limits assumed) above
compound,measurement,setting,value
"CCN1C(=O)C(=Cc2ccc(-c3ccc(C(=O)O)cc3)o2)SC1=S [Cpd30, 4-{5-[(3-ethyl-4-oxo-2-thioxo-1,3-thiazolidin-5-ylidene)methyl]-2-furyl}benzoic acid]",Stat1 phosphorylation blocked,[1],did not
"COC(=O)Cc1c(C)c2ccc(OCc3ccc(C(=O)OC)cc3)c(C)c2oc1=O [Cpd3-7, methyl 4-({[3-(2-methyoxy-2-oxoethyl)-4,8-dimethyl-2-oxo-2H-chromen-7-yl]oxy}methyl)benzoate]",Stat1 phosphorylation blocked,[1],did not
"CCOc1cc(C=C2C(=O)c3ccccc3C2=O)cc(Cl)c1OCc1cccc(C(=O)O)c1 [Cpd3-2, 3-({2-chloro-4-[(1,3-dioxo-1,3-dihydro-2H-inden-2-ylidene)methyl]-6-ethoxyphenoxy}methyl)benzoic acid]",IC50,[2]; [8],150 µM
same,IC50,[3]; [9],144 µM
same,Stat1 phosphorylation blocked,[1],did not
"CCN1C(=O)C(=Cc2ccc(-c3cc(C(=O)O)ccc3Cl)o2)C(=O)N(CC)C1=S [Cpd30-12, 4-chloro-3-{5-[(1,3-diethyl-4,6-dioxo-2-thioxotetrahydro-5(2H)-pyrimidinylidene)methyl]-2-furyl}benzoic acid]",IC50,[2],> 300 µM
same,IC50,[3],60 µM
same,Stat1 phosphorylation blocked,[1],blocked
"O=C(O)c1ccc(C=CC(=O)c2ccc3c(c2)OCCO3)cc1 [Cpd3, 4-[3-(2,3-dihydro-1,4-benzodioxin-6-yl)-3-oxo-1-propen-1-yl]benzoic acid]",IC50,[2]; [8],131 µM
same,IC50,[3]; [9],91 µM
same,amount of hSIE shifted (Stat3:hSIE band intensity),[4],reduced the amount of hSIE shifted by half or greater
same,Stat1 phosphorylation blocked,[1],did not
O=[N+]([O-])c1ccc2c(c1)S(=O)(=O)C=C2 [Stattic],"active concentration range (binding, phosphorylation, translocation, DNA binding, apoptosis)",[5],5 to 20 µM
COc1ccc(S(=O)(=O)Nc2cc(-c3c(O)ccc4ccccc34)c(O)c3ccccc23)cc1 [Cpd188-9],leukemic cell line apoptosis activity compared with parent Cpd188,[6],one log better; also recorded: a log greater activity
Cc1ccc(S(=O)(=O)OCC(=O)Nc2ccc(C(=O)O)c(O)c2)cc1 [S3I-201],growth of nude mice xenografts,[7],inhibited growth
